Here are results for 1 sequence from patent publication US11278587B2 (9 METERS BIOPHARMA, INC., priority 2018, dated 2022).

Ends that are not written are not given here.

In the experiment the test system is MCA205 fibrosarcoma cells. As to the kind of experiment: MCA205 subcutaneous model, tumor growth kinetics. The class given is in vivo, C57BL/6 mice. The note with it: larazotide 2 days per week with anti-PD1 antibody i.p. at 3 day intervals.

For the sequence GGVLVQPG [larazotide], the “enhancement of anti-PD1 effect on MCA205 tumor progression” value was “did not appear to enhance this effect”.
